Measurements taken from paper PMC8880564, “Design, Synthesis, and Biological Evaluation of a Novel VEGFR-2 Inhibitor Based on a 1,2,5-Oxadiazole-2-Oxide Scaffold with MAPK Signaling Pathway Inhibition” (Pharmaceuticals, 2022).
Read-outs that look alike come from different tables or passages of the source.

How the values were obtained:
Type in all cases: cell-based
[1] = test system: NCI-59 human cancer cell lines; assay: NCI-60 one-dose SRB screening, full panel and subpanels; conditions: Homo sapiens; for activity at 10 µM: mean over the full panel, 10 µM one dose, 48 h, SRB, read-out: growth percentage, Mean
Procedure: The structures of the synthesized compounds 6a–h, 12a–c, 11, 13a–c, and 14a–c were submitted to the National Cancer Institute’s Developmental Therapeutics Program (NCI-DTP), and all of them were selected for preliminary in vitro anticancer activity screening against NCI-59 human cancer cell lines at a concentration of 10 µM, using the sulforhodamine B (SRB) assay to determine the growth percentage and cell viability.
The in vitro NCI-60 cell line screening assay was conducted at the National Cancer Institute (NCI), Bethesda, USA against 59 cancer cell lines representing 9 types of cancers, as reported earlier. Briefly, the human cancer cell lines were grown in RPMI 1640 medium containing 5% fetal bovine serum and 2 mM L-glutamine and inoculated into 96-well microtiter plates in 100 μL (5000 to 40,000 cells/well). Then, the plates were incubated at 37 °C, 5% CO2, 95% air, and 100% relative humidity for 24 h. After that, two plates of each cell line were fixed in situ with TCA, to represent cell population at time zero (Tz). The tested compounds were dissolved in DMSO at 400-fold and added so that the final concentration became 10 μM. The plates were then incubated for an additional 48 h followed by the addition of cold TCA to terminate the assay in case of adherent cells. Then, the cells were fixed in situ by cold 50% (w/v) TCA (50 μL; final concentration, 10% TCA) and incubated for 1 h at 4 °C. After discarding the supernatant, the plates were washed 5 times with tap water and air dried. Sulforhodamine B (SRB) solution (100 μL) at 0.4% (w/v) in 1% HOAc was added to each well, and plates were incubated for 10 min. at rt. Then, washing with 1% acetic acid was conducted 5 times to remove the unbound dye followed by air drying. After that, 10 mM trizma base was added to solubilize the bound stain, and the absorbance was read on an automated plate reader at a wavelength of 515 nm. On the other hand, the methodology for suspension cells was the same except that 50 μL of 80% TCA (final concentration, 16% TCA) was gently added to terminate the assay by fixing settled cells at the bottom of the wells. Percentage growth inhibition (GI%) was calculated as follows:
Growth percentage=Ti (test growth in the presence of compound at 10 µM )−Tz (time zero)/C (control growth)−Tz (time zero)×100 for Ti ≥ Tz;
Growth percentage=Ti (test growth in the presence of compound at 10 µM )−Tz (time zero)/Tz (time zero)×100 for Ti < Tz.
where values of 100, 40, 0, −40, and −100 mean no GI, 60% GI, no net G, 40% lethality, and all cells are dead, respectively.
Data are expressed as a one-dose mean graph of growth percentages including the mean, delta, and range.

[2] = test system: TK-10; assay: NCI-60 one-dose SRB screening; conditions: Homo sapiens, TK-10, Renal Cancer, 10 µM one dose, 48 h, read-out: growth percentage
[3] = test system: KM12; assay: NCI-60 one-dose SRB screening; conditions: Homo sapiens, KM12, Colon Cancer, 10 µM one dose, 48 h, read-out: growth percentage
[4] = test system: HS 578T; assay: NCI-60 one-dose SRB screening; conditions: Homo sapiens, Breast Cancer, 10 µM one dose, 48 h, read-out: growth percentage
[5] = test system: COLO 205; assay: NCI-60 one-dose SRB screening; conditions: Homo sapiens, COLO 205, Colon Cancer, 10 µM one dose, 48 h, read-out: growth percentage
[6] = test system: HOP-92; assay: NCI-60 one-dose SRB screening; conditions: Homo sapiens, HOP-92, Non-Small Cell Lung Cancer, 10 µM one dose, 48 h, read-out: growth percentage
[7] = test system: DU-145; assay: NCI-60 one-dose SRB screening; conditions: Homo sapiens, DU-145, Prostate Cancer, 10 µM one dose, 48 h, read-out: growth percentage
[8] = test system: MOLT-4; assay: NCI-60 one-dose SRB screening; conditions: Homo sapiens, MOLT-4, Leukemia, 10 µM one dose, 48 h, read-out: growth percentage
[9] = test system: HCT-116; assay: NCI-60 one-dose SRB screening; conditions: Homo sapiens, HCT-116, Colon Cancer, 10 µM one dose, 48 h, read-out: growth percentage
[10] = test system: OVCAR-8; assay: NCI-60 one-dose SRB screening; conditions: Homo sapiens, OVCAR-8, Ovarian Cancer, 10 µM one dose, 48 h, read-out: growth percentage
[11] = test system: ACHN; assay: NCI-60 one-dose SRB screening; conditions: Homo sapiens, Renal Cancer, 10 µM one dose, 48 h, read-out: growth percentage
[12] = test system: LOX IMVI; assay: NCI-60 one-dose SRB screening; conditions: Homo sapiens, Melanoma, 10 µM one dose, 48 h, read-out: growth percentage
[13] = test system: SNB-19; assay: NCI-60 one-dose SRB screening; conditions: Homo sapiens, SNB-19, CNS Cancer, 10 µM one dose, 48 h, read-out: growth percentage
[14] = test system: NCI/ADR-RES; assay: NCI-60 one-dose SRB screening; conditions: Homo sapiens, Ovarian Cancer, 10 µM one dose, 48 h, read-out: growth percentage
[15] = test system: SR; assay: NCI-60 one-dose SRB screening; conditions: Homo sapiens, Leukemia, 10 µM one dose, 48 h, read-out: growth percentage
[16] = test system: CAKI-1; assay: NCI-60 one-dose SRB screening; conditions: Homo sapiens, CAKI-1, Renal Cancer, 10 µM one dose, 48 h, read-out: growth percentage
[17] = test system: CCRF-CEM; assay: NCI-60 one-dose SRB screening; conditions: Homo sapiens, Leukemia, 10 µM one dose, 48 h, read-out: growth percentage
[18] = full NCI-59 panel, read-out: mean growth inhibition % (MGI%, GI%)

## Cc1nn(-c2ccc(Br)cc2)c2ncnc(Nc3ccc(OCc4c(-c5ccccc5)no[n+]4[O-])cc3)c12 [6g, 3-((4-((1-(4-bromophenyl)-3-methyl-1H-pyrazolo[3,4-d]pyrimidin-4-yl)amino)phenoxy)methyl)-4-phenyl-1,2,5-oxadiazole 2-oxide]
[1]; [18]
  inhibition at 10 µM: 1.58 to 4.57%
[1]
  activity at 10 µM: 98.4%
[2]
  activity at 10 µM: 123%
[3]
  activity at 10 µM: 98.6%
[4]
  activity at 10 µM: 93.4%
[5]
  activity at 10 µM: 117%
[6]
  activity at 10 µM: 86.5%
[7]
  activity at 10 µM: 110%
[8]
  activity at 10 µM: 97.7%
[9]
  activity at 10 µM: 90.7%
[10]
  activity at 10 µM: 93.9%
[11]
  activity at 10 µM: 88%
[12]
  activity at 10 µM: 95%
[13]
  activity at 10 µM: 99.2%
[14]
  activity at 10 µM: 93.8%
[15]
  activity at 10 µM: 121%
[16]
  activity at 10 µM: 84.9%
[17]
  activity at 10 µM: 98.1%

## Cc1nc(Nc2ccc(OCc3c(-c4ccccc4)no[n+]3[O-])cc2)c2c(C)nn(-c3ccc(Br)cc3)c2n1 [6h, 3-((4-((1-(4-bromophenyl)-3,6-dimethyl-1H-pyrazolo[3,4-d]pyrimidin-4-yl)amino)phenoxy)methyl)-4-phenyl-1,2,5-oxadiazole 2-oxide]
[1]; [18]
  inhibition at 10 µM: 1.58 to 4.57%
[1]
  activity at 10 µM: 95.4%
[2]
  activity at 10 µM: 114%
[3]
  activity at 10 µM: 97.7%
[4]
  activity at 10 µM: 94.8%
[5]
  activity at 10 µM: 94.4%
[6]
  activity at 10 µM: 94.6%
[7]
  activity at 10 µM: 102%
[8]
  activity at 10 µM: 87.6%
[9]
  activity at 10 µM: 71.5%
[10]
  activity at 10 µM: 102%
[11]
  activity at 10 µM: 98.7%
[12]
  activity at 10 µM: 98.9%
[13]
  activity at 10 µM: 94.5%
[14]
  activity at 10 µM: 102%
[15]
  activity at 10 µM: 72%
[16]
  activity at 10 µM: 83.8%
[17]
  activity at 10 µM: 103%

## Cc1nn(-c2ccccc2)c2nc(C(F)(F)F)nc(Nc3ccc(NCc4c(-c5ccccc5)no[n+]4[O-])cc3)c12 [12a, 3-(((4-((3-methyl-1-phenyl-6-(trifluoromethyl)-1H-pyrazolo[3,4-d]pyrimidin-4-yl)amino)phenyl)amino)methyl)-4-phenyl-1,2,5-oxadiazole 2-oxide]
[1]
  activity at 10 µM: 76.8%
[2]
  activity at 10 µM: 94.4%
[3]
  activity at 10 µM: 56.7%
[4]
  activity at 10 µM: 77.9%
[5]
  activity at 10 µM: 73.6%
[6]
  activity at 10 µM: 90.1%
[7]
  activity at 10 µM: 82.2%
[8]
  activity at 10 µM: 56.4%
[9]
  activity at 10 µM: 41.1%
[10]
  activity at 10 µM: 89.7%
[11]
  activity at 10 µM: 77.7%
[12]
  activity at 10 µM: 58%
[13]
  activity at 10 µM: 88%
[14]
  activity at 10 µM: 83%
[15]
  activity at 10 µM: 58.7%
[16]
  activity at 10 µM: 53%
[17]
  activity at 10 µM: 59.2%

## [O-][n+]1onc(-c2ccccc2)c1CNc1ccc(Nc2nc(C(F)(F)F)nc3c2cnn3-c2ccc(Br)cc2)cc1 [12b, 3-(((4-((1-(4-bromophenyl)-6-(trifluoromethyl)-1H-pyrazolo[3,4-d]pyrimidin-4-yl)amino)phenyl)amino)methyl)-4-phenyl-1,2,5-oxadiazole 2-oxide]
[1]; CNS cancer cell lines, read-out: growth-inhibitory % activity, up to
  inhibition at 10 µM: ≤ 45%
[1]; breast cancer cells, read-out: growth-inhibitory % activity, up to
  inhibition at 10 µM: ≤ 61%
[1]; colon cancer cell lines, read-out: growth-inhibitory % activity, up to
  inhibition at 10 µM: ≤ 62%
[1]; leukemia cell lines, read-out: growth-inhibitory % activity, up to
  inhibition at 10 µM: ≤ 77%
[1]; melanoma cell lines, read-out: growth-inhibitory % activity, up to
  inhibition at 10 µM: ≤ 72%
[1]; non-small cell lung cancer cell lines, read-out: growth-inhibitory % activity, up to
  inhibition at 10 µM: ≤ 64%
[1]; ovarian cancer cell lines, read-out: growth-inhibitory % activity, up to
  inhibition at 10 µM: ≤ 40%
[1]; prostate cancer cell lines, read-out: growth-inhibitory % activity, up to
  inhibition at 10 µM: ≤ 52%
[1]; renal cancer cell lines, read-out: growth-inhibitory % activity, up to
  inhibition at 10 µM: ≤ 69%
[1]
  activity at 10 µM: 66.8%
[2]
  activity at 10 µM: 86.8%
[3]
  activity at 10 µM: 41.2%
[4]
  activity at 10 µM: 77.6%
[5]
  activity at 10 µM: 74.6%
[6]
  activity at 10 µM: 68.4%
[7]
  activity at 10 µM: 70.8%
[8]
  activity at 10 µM: 47%
[9]
  activity at 10 µM: 46.7%
[10]
  activity at 10 µM: 72.8%
[11]
  activity at 10 µM: 56.9%
[12]
  activity at 10 µM: 27.9%
[13]
  activity at 10 µM: 78.9%
[14]
  activity at 10 µM: 66.4%
[15]
  activity at 10 µM: 43.5%
[16]
  activity at 10 µM: 31.1%
[17]
  activity at 10 µM: 48.5%

## Cc1nn(-c2ccc(Br)cc2)c2nc(C(F)(F)F)nc(Nc3ccc(NCc4c(-c5ccccc5)no[n+]4[O-])cc3)c12 [12c, 3-(((4-((1-(4-bromophenyl)-3-methyl-6-(trifluoromethyl)-1H-pyrazolo[3,4-d]pyrimidin-4-yl)amino)phenyl)amino)methyl)-4-phenyl-1,2,5-oxadiazole 2-oxide]
[1]
  activity at 10 µM: 74.8%
[2]
  activity at 10 µM: 109%
[3]
  activity at 10 µM: 74.3%
[4]
  activity at 10 µM: 83.2%
[5]
  activity at 10 µM: 73.2%
[6]
  activity at 10 µM: 82.3%
[7]
  activity at 10 µM: 84.8%
[8]
  activity at 10 µM: 60.3%
[9]
  activity at 10 µM: 31.9%
[10]
  activity at 10 µM: 75.8%
[11]
  activity at 10 µM: 68.1%
[12]
  activity at 10 µM: 48.5%
[13]
  activity at 10 µM: 84.1%
[14]
  activity at 10 µM: 88.8%
[15]
  activity at 10 µM: 55.5%
[16]
  activity at 10 µM: 55%
[17]
  activity at 10 µM: 60.4%

## O=c1[nH]c(CCl)nc2c1cnn2-c1ccccc1 [13a]
[1]
  activity at 10 µM: 94.2%
[2]
  activity at 10 µM: 154%
[3]
  activity at 10 µM: 101%
[4]
  activity at 10 µM: 111%
[5]
  activity at 10 µM: 114%
[6]
  activity at 10 µM: 101%
[7]
  activity at 10 µM: 98.6%
[8]
  activity at 10 µM: 104%
[9]
  activity at 10 µM: 94.9%
[10]
  activity at 10 µM: 114%
[11]
  activity at 10 µM: 96.7%
[12]
  activity at 10 µM: 103%
[13]
  activity at 10 µM: 96.3%
[14]
  activity at 10 µM: 104%
[15]
  activity at 10 µM: 87.1%
[16]
  activity at 10 µM: 97.6%
[17]
  activity at 10 µM: 101%

## O=c1[nH]c(CNc2ccc(NCc3c(-c4ccccc4)no[n+]3[O-])cc2)nc2c1cnn2-c1ccccc1 [14a, 3-(((4-(((4-oxo-1-phenyl-4,5-dihydro-1H-pyrazolo[3,4-d]pyrimidin-6-yl)methyl)amino)phenyl)amino)methyl)-4-phenyl-1,2,5-oxadiazole 2-oxide]
[1]; [18]
  inhibition at 10 µM: 27.9%
[1]
  activity at 10 µM: 72.1%
[2]
  activity at 10 µM: 102%
[3]
  activity at 10 µM: 73.3%
[4]
  activity at 10 µM: 85.8%
[5]
  activity at 10 µM: 101%
[6]
  activity at 10 µM: 85.4%
[7]
  activity at 10 µM: 74.6%
[8]
  activity at 10 µM: 44%
[9]
  activity at 10 µM: 49.6%
[10]
  activity at 10 µM: 109%
[11]
  activity at 10 µM: 70.4%
[12]
  activity at 10 µM: 85.5%
[13]
  activity at 10 µM: 94%
[14]
  activity at 10 µM: 79.4%
[15]
  activity at 10 µM: 45.7%
[16]
  activity at 10 µM: 55.1%
[17]
  activity at 10 µM: 57.9%
